For this test, the system named is Mus musculus. The test is described as follows: Compound was evaluated in vivo for Pharmacology response in the mouse model Spontaneous Activity. In kind it is functional.

The ED50 is the dose at which the effect has come halfway, by size or by number of responders. Consider `CCCCCc1cc(O)c2c(c1)OC(C)(C)[C@@H]1CCC(C)=C[C@@H]21` [DRONABINOL], for which the ED50 turned out to be 2.9 µmol/kg.

The record behind these values is ChEMBL document CHEMBL1129053, “Synthesis and pharmacology of a very potent cannabinoid lacking a phenolic hydroxyl with high affinity for the CB2 receptor” (J Med Chem, 1996).
